From patent publication US11945813B2, “5-substituted 4-amino-1H-benzo[c][1,2,6]thiadiazine 2,2-dioxides and formulations and uses thereof” (Firmenich Incorporated, priority 2018, dated 2024)

Biological target: T1, T1R2/T1R3 taste receptor (Homo sapiens, UniProt Q8TE23)
T1 sequence (Q8TE23 20-839): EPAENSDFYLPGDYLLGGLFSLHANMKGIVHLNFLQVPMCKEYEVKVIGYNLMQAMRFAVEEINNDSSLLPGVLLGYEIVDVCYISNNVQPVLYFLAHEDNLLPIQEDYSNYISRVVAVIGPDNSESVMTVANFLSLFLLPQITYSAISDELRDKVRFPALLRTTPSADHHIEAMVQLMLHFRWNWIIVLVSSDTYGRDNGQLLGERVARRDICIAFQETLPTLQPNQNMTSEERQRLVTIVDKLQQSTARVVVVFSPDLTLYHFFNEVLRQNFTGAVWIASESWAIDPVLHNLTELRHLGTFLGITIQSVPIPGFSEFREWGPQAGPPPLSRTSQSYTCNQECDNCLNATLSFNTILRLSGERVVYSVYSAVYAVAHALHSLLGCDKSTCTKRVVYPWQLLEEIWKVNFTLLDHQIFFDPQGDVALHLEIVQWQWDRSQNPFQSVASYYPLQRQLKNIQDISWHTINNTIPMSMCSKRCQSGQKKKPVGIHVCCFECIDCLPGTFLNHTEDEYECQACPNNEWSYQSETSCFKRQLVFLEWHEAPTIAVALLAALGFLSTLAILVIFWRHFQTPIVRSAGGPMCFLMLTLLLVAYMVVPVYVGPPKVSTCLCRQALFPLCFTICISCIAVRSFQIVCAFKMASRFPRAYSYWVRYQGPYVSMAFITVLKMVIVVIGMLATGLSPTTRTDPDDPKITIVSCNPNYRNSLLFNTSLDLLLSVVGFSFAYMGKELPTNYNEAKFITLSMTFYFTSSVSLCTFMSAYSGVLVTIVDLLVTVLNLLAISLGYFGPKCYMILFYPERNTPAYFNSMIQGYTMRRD
T1 sequence (Q7RTX0 21-852 partner): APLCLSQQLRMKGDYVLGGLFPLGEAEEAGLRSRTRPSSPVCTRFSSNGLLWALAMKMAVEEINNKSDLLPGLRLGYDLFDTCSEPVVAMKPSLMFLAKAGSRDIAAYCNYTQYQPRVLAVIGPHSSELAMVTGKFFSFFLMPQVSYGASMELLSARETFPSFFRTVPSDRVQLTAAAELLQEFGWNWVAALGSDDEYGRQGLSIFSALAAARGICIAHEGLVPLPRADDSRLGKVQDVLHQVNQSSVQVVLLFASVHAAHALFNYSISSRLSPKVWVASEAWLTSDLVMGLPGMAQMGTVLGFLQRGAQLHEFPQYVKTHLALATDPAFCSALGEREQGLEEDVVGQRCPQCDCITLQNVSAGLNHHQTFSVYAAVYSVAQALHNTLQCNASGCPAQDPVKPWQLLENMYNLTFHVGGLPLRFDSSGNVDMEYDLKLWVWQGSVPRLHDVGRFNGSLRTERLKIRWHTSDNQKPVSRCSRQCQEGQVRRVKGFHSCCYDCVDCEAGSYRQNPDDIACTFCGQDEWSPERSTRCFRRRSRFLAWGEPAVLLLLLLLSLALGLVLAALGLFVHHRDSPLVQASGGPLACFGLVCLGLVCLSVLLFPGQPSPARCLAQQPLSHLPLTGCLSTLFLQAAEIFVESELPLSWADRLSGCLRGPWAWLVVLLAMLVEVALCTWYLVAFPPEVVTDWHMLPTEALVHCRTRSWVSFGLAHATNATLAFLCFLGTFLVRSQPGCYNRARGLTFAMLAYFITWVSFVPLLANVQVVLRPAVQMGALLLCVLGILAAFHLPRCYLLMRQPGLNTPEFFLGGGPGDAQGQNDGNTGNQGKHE
Test: Receptor-based assay: sweetener EC50 alone and with test compound (enhancement ratio)
Format: cell-based
Details: for Fructose Enhancement EC50 Ratio: sweetener fructose; for Sucralose Enhancement EC50 Ratio: sweetener sucralose; for Sucrose Enhancement EC50 Ratio: sweetener sucrose
Procedure, shortened: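 Sucrose, sucralose or fructose EC50 measured on human T1R2/T1R3, alone and with 3, 10 or 50 μM test compound. Enhancement is the EC50 ratio without/with compound, binned A >20, B 10-20, C >1 to <10.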

SMILES	Fructose Enhancement EC50 Ratio (50 μM test compound)	Sucralose Enhancement EC50 Ratio (10 μM test compound)	Sucralose Enhancement EC50 Ratio (50 μM test compound)	Sucrose Enhancement EC50 Ratio (3 μM test compound)	Sucrose Enhancement EC50 Ratio (10 μM test compound)	Sucrose Enhancement EC50 Ratio (50 μM test compound)	Fructose Enhancement EC50 Ratio (10 μM test compound)
CN(C)C(=O)c1ccc(N2CCC[C@H](COc3cccc4c3C(N)=NS(=O)(=O)N4)C2)nc1 [Compound 510]	C (A “C” value indicates an enhancement ratio greater than 1 and less than 10)	B (A “B” value indicates an enhancement ratio from 10 to 20)	A (An “A” value indicates an enhancement ratio of greater than 20)	C (A “C” value indicates an enhancement ratio greater than 1 and less than 10)	C (A “C” value indicates an enhancement ratio greater than 1 and less than 10)	A (An “A” value indicates an enhancement ratio of greater than 20)	
CN1CCN(C(=O)c2ccnc(N3CCC[C@H](COc4cccc5c4C(N)=NS(=O)(=O)N5)C3)c2)CC1 [Compound 615]		A (An “A” value indicates an enhancement ratio of greater than 20)	A (An “A” value indicates an enhancement ratio of greater than 20)	C (A “C” value indicates an enhancement ratio greater than 1 and less than 10)	C (A “C” value indicates an enhancement ratio greater than 1 and less than 10)	B (A “B” value indicates an enhancement ratio from 10 to 20)	
CC(C)CNC(=O)c1ccc(N2CCC[C@H](COc3cccc4c3C(N)=NS(=O)(=O)N4)C2)nc1 [Compound 515]	C (A “C” value indicates an enhancement ratio greater than 1 and less than 10)	A (An “A” value indicates an enhancement ratio of greater than 20)	A (An “A” value indicates an enhancement ratio of greater than 20)	C (A “C” value indicates an enhancement ratio greater than 1 and less than 10)	C (A “C” value indicates an enhancement ratio greater than 1 and less than 10)	C (A “C” value indicates an enhancement ratio greater than 1 and less than 10)	C (A “C” value indicates an enhancement ratio greater than 1 and less than 10)
COCCNC(=O)c1ccc(N2CCC[C@H](COc3cccc4c3C(N)=NS(=O)(=O)N4)C2)nc1 [Compound 504]	C (A “C” value indicates an enhancement ratio greater than 1 and less than 10)	A (An “A” value indicates an enhancement ratio of greater than 20)	A (An “A” value indicates an enhancement ratio of greater than 20)	C (A “C” value indicates an enhancement ratio greater than 1 and less than 10)	C (A “C” value indicates an enhancement ratio greater than 1 and less than 10)	C (A “C” value indicates an enhancement ratio greater than 1 and less than 10)	
NC1=NS(=O)(=O)Nc2cccc(OC[C@H]3CCCN(c4cccc(C(=O)NCC5CCCCC5)n4)C3)c21 [Compound 418]		B (A “B” value indicates an enhancement ratio from 10 to 20)	A (An “A” value indicates an enhancement ratio of greater than 20)	C (A “C” value indicates an enhancement ratio greater than 1 and less than 10)	C (A “C” value indicates an enhancement ratio greater than 1 and less than 10)	C (A “C” value indicates an enhancement ratio greater than 1 and less than 10)	
NC1=NS(=O)(=O)Nc2cccc(OC[C@H]3CCCN(c4cc(C(=O)NCC5CCCCC5)ccn4)C3)c21 [Compound 618]	C (A “C” value indicates an enhancement ratio greater than 1 and less than 10)	B (A “B” value indicates an enhancement ratio from 10 to 20)	B (A “B” value indicates an enhancement ratio from 10 to 20)	C (A “C” value indicates an enhancement ratio greater than 1 and less than 10)	C (A “C” value indicates an enhancement ratio greater than 1 and less than 10)	C (A “C” value indicates an enhancement ratio greater than 1 and less than 10)	
NC1=NS(=O)(=O)Nc2cccc(OC[C@H]3CCCN(c4ccc(C(=O)O)cn4)C3)c21 [Compound 302]	C (A “C” value indicates an enhancement ratio greater than 1 and less than 10)	A (An “A” value indicates an enhancement ratio of greater than 20)	A (An “A” value indicates an enhancement ratio of greater than 20)	C (A “C” value indicates an enhancement ratio greater than 1 and less than 10)	C (A “C” value indicates an enhancement ratio greater than 1 and less than 10)	C (A “C” value indicates an enhancement ratio greater than 1 and less than 10)	C (A “C” value indicates an enhancement ratio greater than 1 and less than 10)
NC1=NS(=O)(=O)Nc2cccc(OC[C@H]3CCCN(c4cccc(C(=O)NC5CCCCC5)n4)C3)c21 [Compound 409]		A (An “A” value indicates an enhancement ratio of greater than 20)	A (An “A” value indicates an enhancement ratio of greater than 20)	C (A “C” value indicates an enhancement ratio greater than 1 and less than 10)	C (A “C” value indicates an enhancement ratio greater than 1 and less than 10)	B (A “B” value indicates an enhancement ratio from 10 to 20)	
CC(C)(COc1cccc2c1C(N)=NS(=O)(=O)N2)Nc1ccnc(N2CCCC2)n1 [Compound 204]	C (A “C” value indicates an enhancement ratio greater than 1 and less than 10)	A (An “A” value indicates an enhancement ratio of greater than 20)	A (An “A” value indicates an enhancement ratio of greater than 20)	C (A “C” value indicates an enhancement ratio greater than 1 and less than 10)	C (A “C” value indicates an enhancement ratio greater than 1 and less than 10)	C (A “C” value indicates an enhancement ratio greater than 1 and less than 10)	
NC1=NS(=O)(=O)Nc2cccc(OC[C@H]3CCCN(c4cccc(C(=O)N5CCOCC5)n4)C3)c21 [Compound 414]	C (A “C” value indicates an enhancement ratio greater than 1 and less than 10)	A (An “A” value indicates an enhancement ratio of greater than 20)		C (A “C” value indicates an enhancement ratio greater than 1 and less than 10)	C (A “C” value indicates an enhancement ratio greater than 1 and less than 10)	B (A “B” value indicates an enhancement ratio from 10 to 20)	C (A “C” value indicates an enhancement ratio greater than 1 and less than 10)
